Results published in ChEMBL document CHEMBL1121780, “Synthesis and antiarrhythmic activity of new benzofuran derivatives” (J Med Chem, 1981).
Active and inactive are the calls of the source. The rule behind the calls is not given here.

Key:
[1] = test system: Canis familiaris; assay: Activity against ouabain-induced ventricular arrhythmia was measured as percent of sinus rhythm recovery at dose of 2.5 mg/kg iv; format: functional, Canis lupus familiaris, Cardiac ventricle
[2] = test system: Canis familiaris; assay: Activity against harris coronary ligation induced ventricular arrhythmia was measured as percent of initial sinus complexes after dose mg/kg, iv=6; Inactive; format: functional, organism-based; settings: Canis lupus familiaris; Cardiac ventricle
[3] = Toxicity estimated in mouse as LD50 by intravenous administration; format: organism-based; settings: in vivo
[4] = organism: Canis familiaris; assay: Duration for the sinus rhythm recovery was measured; format: functional, Canis lupus familiaris

With `COc1c(NC(C)=O)c(OCCN2CCCCC2)c(OC)c2occc12` the SRR [1] was 100%, the ISC [2] was “inactive” and the LD50 [3] was 52 mg/kg. The Duration [4] was >50 min.
